Calls of active or inactive are those of the source. No rule for the calls is given here.
Test system: rodent carcinogenicity bioassays, tumor incidence
Experiment: CCRIS carcinogenicity studies
Procedure, shortened: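 Archive of carcinogenicity, mutagenicity, tumor promotion and tumor inhibition results drawn from journals, NCI reports and other sources, expert-reviewed; covers 1985-2011 and is no longer updated.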

Measured: carcinogen call

O=NN1CCOC1=O
active: Species: HAMSTER, Strain/Sex: SYRIAN/FEMALE, Route: GAVAGE, Dose: 0, 12 MG/ML ((0.2 ML OF A SOLUTION IN ETHYL ACETATE/CORN OIL (1:2)) 1/WK FOR 30 WK (STUDY DURATION: LIFE SPAN), Tumor Site: Type of Lesion: FORESTOMACH: SQUAMOUS CELL CARCINOMA OR ADENOMA active; positive | Species: RAT, Strain/Sex: F344/FEMALE, Route: INTRAVESICULAR, Dose: 0, 2.4 MG 2/WK FOR 8 WK (STUDY DURATION: LIFETIME), Tumor Site: Type of Lesion: BLADDER: TUMOR active; positive

O=c1[nH]c2ccccc2c2ccccc12
inactive: Species: MOUSE, Strain/Sex: CD-1/FEMALE, Route: INTRAPERITONEAL, Dose: 0, 5, 10 AND 20 µL OF A 0.05 MOLAR SOLUTION ON DAYS 1, 8 AND 15 OF LIFE RESPECTIVELY (TOTAL DOSE: 1.75 UMOL) (STUDY DURA, Dose: 0, 5, 10 AND 20 µL OF A 0.05 MOLAR SOLUTION ON DAYS 1, 8 AND 15 OF LIFE RESPECTIVELY (TOTAL DOSE: 1.75 UMOL) (STUDY DURA inactive; negative | Species: MOUSE, Strain/Sex: CD-1/MALE, Route: INTRAPERITONEAL, Dose: 0, 5, 10 AND 20 µL OF A 0.05 MOLAR SOLUTION ON DAYS 1, 8 AND 15 OF LIFE RESPECTIVELY (TOTAL DOSE: 1.75 UMOL) (STUDY DURA, Dose: 0, 5, 10 AND 20 µL OF A 0.05 MOLAR SOLUTION ON DAYS 1, 8 AND 15 OF LIFE RESPECTIVELY (TOTAL DOSE: 1.75 UMOL) (STUDY DURA inactive; negative

CC1=C2C(=CO[C@H](C)[C@H]2C)C(=O)C(C(=O)O)=C1O
inactive: Species: MOUSE, Strain/Sex: DDD/MALE, Route: ORAL, Dose: 0, 100, 200 PPM IN DIET FOR 70 WK (STUDY DURATION: 70 WK), Dose: 0, 100, 200 PPM IN DIET FOR 70 WK (STUDY DURATION: 70 WK) inactive; negative
active: Species: RAT, Route: DIET, Dose: 0, 0.1%, FOR 32 WK, Tumor Site: Type of Lesion: KIDNEY: ADENOMA, ADENOCARCINOMA active; positive | Species: RAT, Strain/Sex: F344/MALE, Route: ORAL, Dose: 0.1% IN DIET FOR 80 WK, Tumor Site: Type of Lesion: KIDNEY: CLEAR CELL ADENOMA active; positive

CI
active: Species: MOUSE, Route: INTRAPERITONEAL, Tumor Site: Type of Lesion: LUNG active; positive | Species: RAT, Route: SUBCUTANEOUS, Tumor Site: Type of Lesion: INJECTION SITE active; positive | Species: Rat, Strain/Sex: Crl:CD(SD)IGS BR/Female (50/Group), Route: Inhalation (whole body), Dose: 0, 5, 20, 60 ppm for 2 yr, study duration 2 yr, Dose: 0, 5, 20, 60 ppm for 2 yr, study duration 2 yr, Tumor Site: Type of Lesion: Thyroid: follicular cell adenoma (60 ppm) active; positive | Species: Rat, Strain/Sex: Crl:CD(SD)IGS BR/Male (50/Group), Route: Inhalation (whole body), Dose: 0, 5, 20, 60 ppm for 2 yr, study duration 2 yr, Dose: 0, 5, 20, 60 ppm for 2 yr, study duration 2 yr, Tumor Site: Type of Lesion: Thyroid: follicular cell adenoma (60 ppm) active; positive

CC(C)(C)c1cc(O)ccc1O
inactive: Species: MOUSE, Strain/Sex: B6C3F1/FEMALE, Route: ORAL, Dose: 0, 1250, 2500, 5000 PPM IN DIET FOR 105 WK (STUDY DURATION: 105 WK), Dose: 0, 1250, 2500, 5000 PPM IN DIET FOR 105 WK (STUDY DURATION: 105 WK) inactive; negative | Species: MOUSE, Strain/Sex: B6C3F1/MALE, Route: ORAL, Dose: 0, 1250, 2500, 5000 PPM IN DIET FOR 104 WK (STUDY DURATION: 104 WK), Dose: 0, 1250, 2500, 5000 PPM IN DIET FOR 104 WK (STUDY DURATION: 104 WK) inactive; negative | Species: RAT, Strain/Sex: F344/FEMALE, Route: ORAL, Dose: 0, 1250, 2500, 5000 PPM IN DIET FOR 129 WK ADMINISTERED TO RATS ALSO EXPOSED IN UTERO THROUGH MOTHERS THAT RECEIVED THE, Dose: 0, 1250, 2500, 5000 PPM IN DIET FOR 129 WK ADMINISTERED TO RATS ALSO EXPOSED IN UTERO THROUGH MOTHERS THAT RECEIVED THE inactive; negative | Species: RAT, Strain/Sex: F344/FEMALE, Route: ORAL, Dose: 0, 5000 PPM IN DIET FOR 128 WK, CONTROL AND DOSED GROUPS FED AD LIBITUM (STUDY DURATION: 128 WK) inactive; negative | Species: RAT, Strain/Sex: F344/FEMALE, Route: ORAL, Dose: 0, 5000 PPM IN DIET FOR 128 WK, CONTROL GROUP WAS WEIGHT-MATCHED TO DOSED GROUP (STUDY DURATION: 128 WK) inactive; negative | Species: RAT, Strain/Sex: F344/FEMALE, Route: ORAL, Dose: 0, 5000 PPM IN DIET FOR 130 WK, CONTROL GROUP DIET RESTRICTED TO LIMIT WEIGHTS TO 85% OF AD LIBITUM-FED GROUPS (STUDY DU inactive; negative | Species: RAT, Strain/Sex: F344/MALE, Route: ORAL, Dose: 0, 1250, 2500, 5000 PPM IN DIET FOR 123 WK ADMINISTERED TO RATS ALSO EXPOSED IN UTERO THROUGH MOTHERS THAT RECEIVED THE, Dose: 0, 1250, 2500, 5000 PPM IN DIET FOR 123 WK ADMINISTERED TO RATS ALSO EXPOSED IN UTERO THROUGH MOTHERS THAT RECEIVED THE inactive; negative | Species: RAT, Strain/Sex: F344/MALE, Route: ORAL, Dose: 0, 5000 PPM IN DIET FOR 102 WK, CONTROL AND DOSED GROUPS FED AD LIBITUM (STUDY DURATION; 122 WK), Dose: 0, 5000 PPM IN DIET FOR 102 WK, CONTROL AND DOSED GROUPS FED AD LIBITUM (STUDY DURATION; 122 WK) inactive; negative | Species: RAT, Strain/Sex: F344/MALE, Route: ORAL, Dose: 0, 5000 PPM IN DIET FOR 122 WK, CONTROL GROUP WAS WEIGHT-MATCHED TO DOSED GROUP (STUDY DURATION: 122 WK) inactive; negative | Species: RAT, Strain/Sex: F344/MALE, Route: ORAL, Dose: 0, 5000 PPM IN DIET FOR 130 WK, CONTROL GROUP DIET RESTRICTED TO LIMIT WEIGHTS TO 85% OF AD LIBITUM-FED GROUPS (STUDY DU inactive; negative

Oc1ccc(Cl)cc1Cl
inactive: Species: MOUSE, Strain/Sex: B6C3F1/FEMALE, Route: ORAL, Dose: 0, 5000, 10000 PPM IN FEED FOR 103 WK (STUDY DURATION: 104 WK), Dose: 0, 5000, 10000 PPM IN FEED FOR 103 WK (STUDY DURATION: 104 WK) inactive; negative | Species: MOUSE, Strain/Sex: B6C3F1/MALE, Route: ORAL, Dose: 0, 5000, 10000 PPM IN FEED FOR 103 WK (STUDY DURATION: 104 WK), Dose: 0, 5000, 10000 PPM IN FEED FOR 103 WK (STUDY DURATION: 104 WK) inactive; negative | Species: RAT, Strain/Sex: F344/FEMALE, Route: ORAL, Dose: 0, 2500, 5000 PPM IN FEED FOR 103 WK (STUDY DURATION: 104 WK), Dose: 0, 2500, 5000 PPM IN FEED FOR 103 WK (STUDY DURATION: 104 WK) inactive; negative | Species: RAT, Strain/Sex: F344/MALE, Route: ORAL, Dose: 0, 5000, 10000 PPM IN FEED FOR 103 WK (STUDY DURATION: 104 WK), Dose: 0, 5000, 10000 PPM IN FEED FOR 103 WK (STUDY DURATION: 104 WK) inactive; negative

Cn1c(=O)c2[nH]cnc2n(C)c1=O
inactive: Species: MOUSE, Strain/Sex: B6C3F1/FEMALE, Route: GAVAGE, Dose: 0, 7.5, 25, 75 MG/KG BW IN CORN OIL 5 D/WK FOR 726 D (STUDY DURATION: 2 YR), Dose: 0, 7.5, 25, 75 MG/KG BW IN CORN OIL 5 D/WK FOR 726 D (STUDY DURATION: 2 YR) inactive; negative | Species: MOUSE, Strain/Sex: B6C3F1/MALE, Route: GAVAGE, Dose: 0, 15, 50, 150 MG/KG BW IN CORN OIL 5 D/WK FOR 726 D (STUDY DURATION: 2 YR), Dose: 0, 15, 50, 150 MG/KG BW IN CORN OIL 5 D/WK FOR 726 D (STUDY DURATION: 2 YR) inactive; negative | Species: RAT, Strain/Sex: F344/FEMALE, Route: GAVAGE, Dose: 0, 7.5, 25, 75 MG/KG BW IN CORN OIL 5 D/WK FOR 729 D (STUDY DURATION: 2 YR), Dose: 0, 7.5, 25, 75 MG/KG BW IN CORN OIL 5 D/WK FOR 729 D (STUDY DURATION: 2 YR) inactive; negative | Species: RAT, Strain/Sex: F344/MALE, Route: GAVAGE, Dose: 0, 7.5, 25, 75 MG/KG BW IN CORN OIL 5 D/WK FOR 729 D (STUDY DURATION: 2 YR), Dose: 0, 7.5, 25, 75 MG/KG BW IN CORN OIL 5 D/WK FOR 729 D (STUDY DURATION: 2 YR) inactive; negative

COc1ccc(N)c(C)c1
inactive: Species: MOUSE, Strain/Sex: B6C3F1/FEMALE, Route: GAVAGE, Dose: 0, 0.06, 0.11 G/KG (FOR 53 WK), Dose: 0, 0.06, 0.11 G/KG (FOR 53 WK) inactive; negative
active: Species: RAT, Strain/Sex: F344/FEMALE, Route: GAVAGE, Dose: 0, 0.08, 0.16 G/KG, Dose: 0, 0.08, 0.16 G/KG, Tumor Site: Type of Lesion: URINARY BLADDER: TRANSITIONAL CELL CARCINOMA active; positive | Species: RAT, Strain/Sex: F344/MALE, Route: GAVAGE, Dose: 0, 0.08, 0.16 G/KG, Dose: 0, 0.08, 0.16 G/KG, Tumor Site: Type of Lesion: URINARY BLADDER: TRANSITIONAL CELL CARCINOMA active; positive

Source: PubChem BioAssay AID1259411 (Chemical Carcinogenesis Research Information System (CCRIS), 2018)
